Key:
Assay type in all cases: binding
[1] = target: kinases (KINOMEscan panel) (Homo sapiens, UniProt O43353); settings: RIPK2; NEW KINOMEscan
[2] = target: kinases (KINOMEscan panel) (Homo sapiens, UniProt Q9P286); settings: kinase PAK5; NEW KINOMEscan
[3] = target: kinases (KINOMEscan panel) (Homo sapiens, UniProt P22607, G697C); settings: FGFR3(G697C); NEW KINOMEscan
[4] = target: kinases (KINOMEscan panel) (Homo sapiens, UniProt Q9H1R3); settings: MYLK2; NEW KINOMEscan
[5] = target: kinases (KINOMEscan panel) (Homo sapiens, UniProt P10721, V559D); settings: kinase KIT(V559D); NEW KINOMEscan
[6] = target: T1, kinases (KINOMEscan panel) (Homo sapiens, UniProt Q86YV6); settings: kinase MYLK4; NEW KINOMEscan
T1 sequence (Q86YV6 1-388): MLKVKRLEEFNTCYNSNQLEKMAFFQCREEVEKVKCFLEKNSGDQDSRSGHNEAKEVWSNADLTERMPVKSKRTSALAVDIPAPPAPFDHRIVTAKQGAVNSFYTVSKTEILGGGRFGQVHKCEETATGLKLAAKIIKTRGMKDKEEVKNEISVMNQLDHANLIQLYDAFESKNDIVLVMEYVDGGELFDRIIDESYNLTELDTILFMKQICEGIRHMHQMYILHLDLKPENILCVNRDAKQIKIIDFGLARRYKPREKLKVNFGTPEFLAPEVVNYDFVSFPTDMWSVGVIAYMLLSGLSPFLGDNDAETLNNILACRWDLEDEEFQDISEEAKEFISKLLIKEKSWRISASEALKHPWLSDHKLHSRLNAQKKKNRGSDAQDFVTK

[7] = target: kinases (KINOMEscan panel) (Homo sapiens, UniProt Q9BQI3)
[8] = target: T2, kinases (KINOMEscan panel) (Homo sapiens, UniProt Q6XUX3); settings: DSTYK; NEW KINOMEscan
T2 sequence (Q6XUX3 1-929): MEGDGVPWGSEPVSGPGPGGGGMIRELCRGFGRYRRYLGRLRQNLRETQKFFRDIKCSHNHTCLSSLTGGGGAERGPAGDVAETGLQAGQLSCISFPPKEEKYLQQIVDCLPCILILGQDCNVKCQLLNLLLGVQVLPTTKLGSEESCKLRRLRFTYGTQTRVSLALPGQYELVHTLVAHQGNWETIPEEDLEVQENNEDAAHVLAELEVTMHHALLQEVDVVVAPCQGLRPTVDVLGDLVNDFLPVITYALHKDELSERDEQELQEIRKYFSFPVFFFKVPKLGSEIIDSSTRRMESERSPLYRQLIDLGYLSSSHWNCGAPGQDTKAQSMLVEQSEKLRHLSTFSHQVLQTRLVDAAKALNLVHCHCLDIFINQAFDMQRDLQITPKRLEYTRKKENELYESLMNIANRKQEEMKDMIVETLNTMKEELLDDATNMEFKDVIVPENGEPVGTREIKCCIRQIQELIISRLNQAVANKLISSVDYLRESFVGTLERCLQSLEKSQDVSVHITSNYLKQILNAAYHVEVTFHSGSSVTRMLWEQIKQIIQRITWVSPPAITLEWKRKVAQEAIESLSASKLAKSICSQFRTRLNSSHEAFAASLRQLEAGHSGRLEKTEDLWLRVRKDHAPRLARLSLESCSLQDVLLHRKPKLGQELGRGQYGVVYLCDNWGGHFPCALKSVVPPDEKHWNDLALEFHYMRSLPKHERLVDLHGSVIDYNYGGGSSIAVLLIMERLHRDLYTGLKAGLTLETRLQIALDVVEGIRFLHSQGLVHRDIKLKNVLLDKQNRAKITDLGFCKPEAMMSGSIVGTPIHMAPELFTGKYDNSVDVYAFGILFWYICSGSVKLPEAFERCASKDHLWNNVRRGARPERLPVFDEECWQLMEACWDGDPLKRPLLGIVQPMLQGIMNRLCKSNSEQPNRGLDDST

[9] = target: kinases (KINOMEscan panel) (Homo sapiens, UniProt P00533, L858R/T790M); settings: NEW KINOMEscan
[10] = target: kinases (KINOMEscan panel) (Homo sapiens, UniProt Q9H4B4); settings: kinase PLK3; NEW KINOMEscan
Chain of kinases (KINOMEscan panel) (Homo sapiens, UniProt Q9H4B4) (Q9H4B4 whole entry): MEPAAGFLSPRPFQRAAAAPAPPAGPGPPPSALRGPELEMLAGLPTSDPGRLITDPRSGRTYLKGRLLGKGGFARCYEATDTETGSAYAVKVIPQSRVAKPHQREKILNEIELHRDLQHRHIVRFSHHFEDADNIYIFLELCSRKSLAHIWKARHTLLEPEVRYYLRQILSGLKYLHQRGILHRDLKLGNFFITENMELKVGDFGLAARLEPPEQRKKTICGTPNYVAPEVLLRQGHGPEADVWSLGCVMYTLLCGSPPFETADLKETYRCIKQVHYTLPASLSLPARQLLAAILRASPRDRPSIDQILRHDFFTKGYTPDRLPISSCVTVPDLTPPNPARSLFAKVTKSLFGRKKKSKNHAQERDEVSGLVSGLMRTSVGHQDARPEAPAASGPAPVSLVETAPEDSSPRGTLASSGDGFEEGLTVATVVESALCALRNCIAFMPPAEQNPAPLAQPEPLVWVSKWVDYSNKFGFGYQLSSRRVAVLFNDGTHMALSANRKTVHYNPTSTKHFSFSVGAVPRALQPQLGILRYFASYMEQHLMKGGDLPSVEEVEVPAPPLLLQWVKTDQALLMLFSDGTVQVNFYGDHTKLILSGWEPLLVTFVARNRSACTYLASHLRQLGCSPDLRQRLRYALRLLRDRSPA

Chain of kinases (KINOMEscan panel) (Homo sapiens, UniProt Q9BQI3) (Q9BQI3 whole entry): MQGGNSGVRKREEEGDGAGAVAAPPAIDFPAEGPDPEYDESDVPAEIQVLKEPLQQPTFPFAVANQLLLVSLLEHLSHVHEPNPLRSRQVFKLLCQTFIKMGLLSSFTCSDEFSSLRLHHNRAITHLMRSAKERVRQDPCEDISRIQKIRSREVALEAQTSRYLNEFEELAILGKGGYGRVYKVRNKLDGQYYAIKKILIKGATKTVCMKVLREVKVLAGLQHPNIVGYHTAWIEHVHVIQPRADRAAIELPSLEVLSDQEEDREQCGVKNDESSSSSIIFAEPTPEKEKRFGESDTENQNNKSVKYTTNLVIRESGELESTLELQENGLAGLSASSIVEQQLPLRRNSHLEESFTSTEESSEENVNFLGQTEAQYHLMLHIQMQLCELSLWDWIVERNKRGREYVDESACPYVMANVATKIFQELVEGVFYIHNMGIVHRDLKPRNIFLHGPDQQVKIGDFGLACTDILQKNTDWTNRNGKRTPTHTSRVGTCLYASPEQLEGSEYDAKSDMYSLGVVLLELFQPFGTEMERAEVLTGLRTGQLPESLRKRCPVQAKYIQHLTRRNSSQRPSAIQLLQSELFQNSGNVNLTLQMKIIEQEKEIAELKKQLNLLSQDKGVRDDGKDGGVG
Chain of kinases (KINOMEscan panel) (Homo sapiens, UniProt Q9H1R3) (Q9H1R3 whole entry): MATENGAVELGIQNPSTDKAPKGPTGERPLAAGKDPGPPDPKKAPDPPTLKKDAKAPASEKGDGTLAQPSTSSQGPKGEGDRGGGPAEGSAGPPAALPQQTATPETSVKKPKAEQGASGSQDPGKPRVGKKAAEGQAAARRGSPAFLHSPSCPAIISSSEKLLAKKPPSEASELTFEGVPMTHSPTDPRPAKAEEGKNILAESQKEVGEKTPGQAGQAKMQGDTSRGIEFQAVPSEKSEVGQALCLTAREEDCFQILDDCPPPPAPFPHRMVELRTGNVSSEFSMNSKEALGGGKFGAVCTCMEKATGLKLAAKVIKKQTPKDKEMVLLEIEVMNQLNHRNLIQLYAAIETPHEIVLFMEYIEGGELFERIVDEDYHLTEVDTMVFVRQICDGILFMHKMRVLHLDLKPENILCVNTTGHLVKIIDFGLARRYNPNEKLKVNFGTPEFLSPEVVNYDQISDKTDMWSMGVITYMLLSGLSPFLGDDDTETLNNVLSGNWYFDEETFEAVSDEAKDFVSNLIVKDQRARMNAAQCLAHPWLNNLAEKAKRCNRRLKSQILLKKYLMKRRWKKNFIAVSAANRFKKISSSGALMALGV
Chain of kinases (KINOMEscan panel) (Homo sapiens, UniProt P22607, G697C) (P22607 23-806 G697C): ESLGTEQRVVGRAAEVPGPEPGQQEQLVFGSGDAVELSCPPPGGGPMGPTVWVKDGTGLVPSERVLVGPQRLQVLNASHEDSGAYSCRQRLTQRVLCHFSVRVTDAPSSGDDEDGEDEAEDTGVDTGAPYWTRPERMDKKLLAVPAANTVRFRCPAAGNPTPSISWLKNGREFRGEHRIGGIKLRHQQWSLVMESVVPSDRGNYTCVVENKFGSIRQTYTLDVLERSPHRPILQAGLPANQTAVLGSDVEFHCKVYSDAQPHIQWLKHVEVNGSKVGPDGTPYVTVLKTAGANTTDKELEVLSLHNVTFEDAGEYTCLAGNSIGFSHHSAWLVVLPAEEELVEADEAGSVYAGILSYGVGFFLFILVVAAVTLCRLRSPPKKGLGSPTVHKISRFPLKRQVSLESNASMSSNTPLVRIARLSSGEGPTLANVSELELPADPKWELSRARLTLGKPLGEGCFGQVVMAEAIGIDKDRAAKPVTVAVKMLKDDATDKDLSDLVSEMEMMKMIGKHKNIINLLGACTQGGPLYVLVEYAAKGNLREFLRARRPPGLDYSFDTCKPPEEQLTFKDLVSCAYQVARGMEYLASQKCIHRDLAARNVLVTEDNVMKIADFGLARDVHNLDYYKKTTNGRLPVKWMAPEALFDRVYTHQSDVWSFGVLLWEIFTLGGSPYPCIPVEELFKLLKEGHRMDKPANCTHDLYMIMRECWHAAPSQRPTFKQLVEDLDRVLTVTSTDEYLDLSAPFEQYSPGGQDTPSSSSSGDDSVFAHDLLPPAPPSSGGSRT
Chain of kinases (KINOMEscan panel) (Homo sapiens, UniProt P10721, V559D) (P10721 26-976 V559D): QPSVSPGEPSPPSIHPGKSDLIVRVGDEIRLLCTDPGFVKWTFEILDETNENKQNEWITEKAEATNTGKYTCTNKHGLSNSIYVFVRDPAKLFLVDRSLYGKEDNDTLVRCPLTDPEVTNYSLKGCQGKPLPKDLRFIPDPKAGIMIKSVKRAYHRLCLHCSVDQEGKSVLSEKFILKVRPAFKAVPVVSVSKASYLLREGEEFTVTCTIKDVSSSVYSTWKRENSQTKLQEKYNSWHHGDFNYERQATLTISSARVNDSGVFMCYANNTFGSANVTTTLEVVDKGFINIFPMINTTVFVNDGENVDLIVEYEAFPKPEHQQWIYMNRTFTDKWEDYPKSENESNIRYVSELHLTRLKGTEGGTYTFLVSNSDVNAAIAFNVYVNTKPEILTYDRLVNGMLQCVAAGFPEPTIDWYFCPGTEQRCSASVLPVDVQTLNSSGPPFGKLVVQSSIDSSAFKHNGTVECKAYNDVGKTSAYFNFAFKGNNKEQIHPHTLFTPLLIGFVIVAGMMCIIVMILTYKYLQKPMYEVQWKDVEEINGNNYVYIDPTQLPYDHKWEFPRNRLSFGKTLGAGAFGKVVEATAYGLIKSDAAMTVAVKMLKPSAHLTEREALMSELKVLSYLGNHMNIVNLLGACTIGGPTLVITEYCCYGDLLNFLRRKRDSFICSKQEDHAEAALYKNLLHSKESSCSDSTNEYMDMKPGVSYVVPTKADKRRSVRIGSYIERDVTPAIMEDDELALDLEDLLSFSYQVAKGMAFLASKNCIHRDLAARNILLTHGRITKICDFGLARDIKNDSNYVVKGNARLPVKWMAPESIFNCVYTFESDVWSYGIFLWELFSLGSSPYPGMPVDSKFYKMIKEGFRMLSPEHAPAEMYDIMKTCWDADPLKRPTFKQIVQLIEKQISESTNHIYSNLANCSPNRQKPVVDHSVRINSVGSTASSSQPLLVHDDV
Chain of kinases (KINOMEscan panel) (Homo sapiens, UniProt O43353) (O43353 whole entry): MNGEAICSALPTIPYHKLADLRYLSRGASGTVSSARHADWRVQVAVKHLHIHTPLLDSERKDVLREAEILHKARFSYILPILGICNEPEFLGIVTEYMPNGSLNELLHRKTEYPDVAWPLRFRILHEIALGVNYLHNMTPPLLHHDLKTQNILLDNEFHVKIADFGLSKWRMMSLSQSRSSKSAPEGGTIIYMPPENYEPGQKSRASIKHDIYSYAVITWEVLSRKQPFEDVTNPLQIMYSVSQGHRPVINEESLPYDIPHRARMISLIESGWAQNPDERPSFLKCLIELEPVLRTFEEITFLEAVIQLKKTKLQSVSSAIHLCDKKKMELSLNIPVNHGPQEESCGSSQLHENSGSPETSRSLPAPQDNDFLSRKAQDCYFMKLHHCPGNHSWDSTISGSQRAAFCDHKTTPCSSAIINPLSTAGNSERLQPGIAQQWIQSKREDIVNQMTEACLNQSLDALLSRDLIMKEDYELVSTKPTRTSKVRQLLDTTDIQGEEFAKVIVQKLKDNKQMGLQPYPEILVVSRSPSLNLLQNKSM
Chain of kinases (KINOMEscan panel) (Homo sapiens, UniProt Q9P286) (Q9P286 whole entry): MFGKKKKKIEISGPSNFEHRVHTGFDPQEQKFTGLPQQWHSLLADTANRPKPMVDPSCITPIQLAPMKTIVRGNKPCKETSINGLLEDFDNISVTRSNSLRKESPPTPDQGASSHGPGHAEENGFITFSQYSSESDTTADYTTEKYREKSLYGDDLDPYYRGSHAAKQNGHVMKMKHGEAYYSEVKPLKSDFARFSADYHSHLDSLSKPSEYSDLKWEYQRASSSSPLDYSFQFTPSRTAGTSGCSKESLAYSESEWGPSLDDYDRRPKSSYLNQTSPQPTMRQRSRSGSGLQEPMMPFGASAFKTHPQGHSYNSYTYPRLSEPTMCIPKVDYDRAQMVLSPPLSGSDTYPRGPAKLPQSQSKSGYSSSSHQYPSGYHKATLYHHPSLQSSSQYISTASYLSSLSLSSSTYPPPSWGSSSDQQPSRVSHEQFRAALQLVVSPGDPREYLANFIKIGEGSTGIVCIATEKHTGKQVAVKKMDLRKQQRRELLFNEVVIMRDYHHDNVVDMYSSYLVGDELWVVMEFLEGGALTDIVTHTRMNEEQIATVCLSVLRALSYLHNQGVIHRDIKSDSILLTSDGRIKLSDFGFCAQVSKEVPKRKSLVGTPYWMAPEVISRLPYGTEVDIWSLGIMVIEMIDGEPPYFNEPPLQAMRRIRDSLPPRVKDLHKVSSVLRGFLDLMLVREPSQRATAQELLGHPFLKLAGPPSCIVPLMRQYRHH

## Cc1cccc(-c2nc(Nc3ccc4nn(C)cc4c3)c3ccccc3n2)n1 [NK167]
[1]
  KINOMEscan RIPK2: 3
[2]
  KINOMEscan PAK5: 0
[3]
  KINOMEscan FGFR3(G697C): 6
[4]
  KINOMEscan MYLK2: 0
[5]
  KINOMEscan KIT(V559D): 15
[6]
  KINOMEscan MYLK4: 0
[7]
  KINOMEscan ElF2AK2/EIF2AK1: 0
[8]
  KINOMEscan DSTYK: 0
[9]
  KINOMEscan EGFR(L858R,T790M): 0
[10]
  KINOMEscan PLK3: 16

## Cc1cccc(-c2nc(N(C)c3ccc4ncsc4c3)c3ccccc3n2)n1 [NK-161]
[1]
  KINOMEscan RIPK2: 11
[2]
  KINOMEscan PAK5: 2
[3]
  KINOMEscan FGFR3(G697C): 0
[4]
  KINOMEscan MYLK2: 9
[5]
  KINOMEscan KIT(V559D): 7
[6]
  KINOMEscan MYLK4: 0
[7]
  KINOMEscan ElF2AK2/EIF2AK1: 1
[8]
  KINOMEscan DSTYK: 0
[9]
  KINOMEscan EGFR(L858R,T790M): 10
[10]
  KINOMEscan PLK3: 13

— PMC9851200, “Multiparameter phenotypic screening for endogenous TFEB and TFE3 translocation identifies novel chemical series modulating lysosome function” (Autophagy, 2022)
